Measured values published in patent publication US20170044208A1, “SELECTIVE GLUCOCORTICOID RECEPTOR LIGANDS” (The University of Manchester, priority 2013, published 2017).
Where two headings read alike, the source gives them in different places.

Key:
[1] = target: T1, Glucocorticoid Receptor (GR) (Homo sapiens, UniProt P04150); assay: Transactivation assay (MMTV-Luc reporter in HeLa cells); type: cell-based
T1 construct: Cells were transfected the next day with MMTV-Luc (5 μg) and pGL4-hRLuc (0.1 μg); endogenous in cells; host or cells: HeLa
T1 sequence (P04150 1-777): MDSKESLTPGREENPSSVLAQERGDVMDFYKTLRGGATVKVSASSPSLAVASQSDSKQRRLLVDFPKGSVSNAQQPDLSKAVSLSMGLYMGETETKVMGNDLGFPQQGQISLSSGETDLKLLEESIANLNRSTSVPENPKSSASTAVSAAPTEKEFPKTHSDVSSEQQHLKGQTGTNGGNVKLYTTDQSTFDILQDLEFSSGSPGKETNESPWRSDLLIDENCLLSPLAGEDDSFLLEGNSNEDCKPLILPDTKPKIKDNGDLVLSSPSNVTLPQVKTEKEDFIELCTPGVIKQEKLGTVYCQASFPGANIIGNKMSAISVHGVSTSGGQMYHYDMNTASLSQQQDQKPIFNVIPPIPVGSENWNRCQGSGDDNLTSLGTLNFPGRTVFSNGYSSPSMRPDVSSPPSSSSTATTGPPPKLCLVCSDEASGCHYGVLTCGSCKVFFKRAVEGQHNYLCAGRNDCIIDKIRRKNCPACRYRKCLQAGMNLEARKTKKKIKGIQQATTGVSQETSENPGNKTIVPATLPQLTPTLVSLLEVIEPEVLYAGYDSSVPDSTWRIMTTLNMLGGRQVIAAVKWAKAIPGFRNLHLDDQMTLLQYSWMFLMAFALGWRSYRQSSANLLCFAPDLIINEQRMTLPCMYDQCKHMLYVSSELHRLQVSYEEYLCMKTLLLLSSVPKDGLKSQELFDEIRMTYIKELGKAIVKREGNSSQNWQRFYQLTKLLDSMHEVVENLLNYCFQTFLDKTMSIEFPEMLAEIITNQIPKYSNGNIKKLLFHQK
Description: (§1) HeLa cells were seeded at 80×10^4 cells/dish in 100 mm dishes. Cells were transfected the next day with MMTV-Luc (5 μg) and pGL4-hRLuc (0.1 μg), in 250 μL of Opti-MEM I using FuGENE HD (15 μL). After 24 hours, cells were trypsinized and seeded into 96-well plates at a density of 8-10×10^4 cells/mL.
Following overnight incubation to allow attachment, cells were treated with the required concentration of compounds, then further incubated for 16 hours. Media was aspirated and cells lysed in 40 μL of 1×PLB.
(§2) Firefly and Renilla luciferase activity was measured using the Dual Luciferase Reporter system following the manufacturer's protocol.
(§3) IC50 and EC50 values were calculated by using GraphPad Prism 5.0. Briefly, luminescence values for luciferase were normalised using the Renilla luminescence values. The normalised values were input into GraphPad Prism 5.0. Non-linear regression analysis was carried out using the “log(concentration) vs. response” equation of the software, with a Hill slope coefficient fixed at 1.
(§4) IC50 and EC50 values are mean values in nM of all IC50/EC50 values for the compound. Max % values are mean values of the Max% activity.

NFkB = assay: Transrepression assay (NFκB-LUC reporter in HeLa cells, TNF stimulated); type: cell-based; conditions: for Emax / IC50: Homo sapiens, HeLa; for Emax: 16 h, read-out: TR Max %; for TR %: maximal NFkB repression compared to Dexamethasone
Description: as §1, with “NFκB-LUC reporter” for “MMTV-Luc”, “0.25 mL” for “250 μL”, “in to 24-well” for “into 96-well”, “cells/mL. Following overnight incubation, cells were starved for a further 24 hours in DMEM.” for “cells/mL.”
On the day of the experiment, compounds were added to cells one hour prior to the addition of […] (0.5 ng/mL). After a further 16 hours, cells were washed twice with ice-cold PBS, then lysed with 100 μL of 1×PLB.
as §2, §3, §4

[2] = concentration for half-maximal transactivation; HeLa, MMTV-Luc, 16 hours; mean; read-out: TA EC50
[3] = concentration for half-maximal repression of NFkB, TNF 0.5 ng/mL, 16 hours, mean, read-out: TR IC50
[4] = comparison table; against maximal activation seen with dexamethasone
[5] = comparison table, half-maximal repression of NFkB, multiple experiments, read-out: IC50

SMILES	Emax ([1]; HeLa, 16 h; read-out: TA Max %) [%]	EC50 [1, 2] [nM]	Emax (NFkB) [%]	IC50 (NFkB; [3]) [nM]	TA % [1, 4] [%]	IC50 (NFkB; [5]) [nM]	TR % (NFkB; comparison table) [%]	Emax ([1]; HeLa, 16 h, read-out: TA Max %) [%]
C[C@@H]1C[C@H]2[C@@H]3CCC4=CC(=O)C=C[C@]4(C)[C@@]3(F)[C@@H](O)C[C@]2(C)[C@@]1(O)c1csc(NCc2ccccc2)n1 [Compound 25]	1.92	3930	79	29.1				
C[C@@H]1C[C@H]2[C@@H]3CCC4=CC(=O)C=C[C@]4(C)[C@@]3(F)[C@@H](O)C[C@]2(C)[C@@]1(O)c1csc(NC(=O)Cc2ccc(F)cc2)n1 [Compound 24]	2.63	7690	79	5.96				
COc1cccc(C(=O)Nc2nc([C@@]3(O)[C@H](C)C[C@H]4[C@@H]5CCC6=CC(=O)C=C[C@]6(C)[C@@]5(F)[C@@H](O)C[C@@]43C)cs2)c1 [Compound 29]	0.67	19400	44.2	7.96				
C[C@@H]1C[C@H]2[C@@H]3CCC4=CC(=O)C=C[C@]4(C)[C@@]3(F)[C@@H](O)C[C@]2(C)[C@@]1(O)C(=O)CO [Dex, dexamethasone, reference compound]					100	2.86	100	
C[C@@H]1C[C@H]2[C@@H]3CCC4=CC(=O)C=C[C@]4(C)[C@@]3(F)[C@@H](O)C[C@]2(C)[C@@]1(O)c1csc(NC(=O)c2ccc(F)nc2)n1 [Compound 47]	7.41	669	48	22.9				
C[C@@H]1C[C@H]2[C@@H]3CCC4=CC(=O)C=C[C@]4(C)[C@@]3(F)[C@@H](O)C[C@]2(C)[C@@]1(O)c1csc(NC(=O)c2cccc(F)c2)n1 [Compound 26]	3.9	1530	44.1	8.22				
C[C@@H]1C[C@H]2[C@@H]3CCC4=CC(=O)C=C[C@]4(C)[C@@]3(F)[C@@H](O)C[C@]2(C)[C@@]1(O)c1csc(NC(=O)c2ccc3ncsc3c2)n1 [Compound 39]	0.96	1160	19	8.34				
COc1ccc(OCCCCNC(=O)[C@@]2(O)[C@H](C)C[C@H]3[C@@H]4CCC5=CC(=O)C=C[C@]5(C)[C@@]4(F)[C@@H](O)C[C@@]32C)cc1 [Compound 18]	26.3	669	82.1	6.83	26	5.96	84	
COc1cccc(OCCCNC(=O)[C@@]2(O)[C@H](C)C[C@H]3[C@@H]4CCC5=CC(=O)C=C[C@]5(C)[C@@]4(F)[C@@H](O)C[C@@]32C)c1 [Compound 15]	20.8	1230	79.7	3.53				
COc1ccc(OCCCNC(=O)[C@@]2(O)[C@H](C)C[C@H]3[C@@H]4CCC5=CC(=O)C=C[C@]5(C)[C@@]4(F)[C@@H](O)C[C@@]32C)cc1 [Compound 4]		69.2	106	3.95				39.4
C[C@@H]1C[C@H]2[C@@H]3CCC4=CC(=O)C=C[C@]4(C)[C@@]3(F)[C@@H](O)C[C@]2(C)[C@@]1(O)C(=O)NCCOc1ccncc1 [Compound 12]	23.8	719	91.1	40.7				
COc1ccc(CCCNC(=O)[C@@]2(O)[C@H](C)C[C@H]3[C@@H]4CCC5=CC(=O)C=C[C@]5(C)[C@@]4(F)[C@@H](O)C[C@@]32C)cc1OC [Compound 13]	30	189	87.6	10.8				
COc1ccc(C(=O)Nc2nc([C@@]3(O)[C@H](C)C[C@H]4[C@@H]5CCC6=CC(=O)C=C[C@]6(C)[C@@]5(F)[C@@H](O)C[C@@]43C)cs2)cc1 [Compound 34]	0	17500	51.8	4.76				
C[C@@H]1C[C@H]2[C@@H]3CCC4=CC(=O)C=C[C@]4(C)[C@@]3(F)[C@@H](O)C[C@]2(C)[C@@]1(O)C(=O)NCCCOc1ccc(F)cc1 [Compound 6]	16	890	84.6	11.5				
